We go through two molecules from publication PMC10098953, “Genome Mining Enabled by Biosynthetic Characterization Uncovers a Class of Benzoxazolinate‐Containing Natural Products in Diverse Bacteria” (Angewandte Chemie (International Ed. in English), 2022).

This assay has as its system T1, PbzB.
T1 construct: recombinant, His-SUMO-tag, expressed in and purified from E. coli BL21(DE3); homodimer (apo crystal structure)
Briefly: steady-state kinetics of 2-hydroxymethylserine formation (LC-MS). The class given is biochemical, Pseudomonas chlororaphis subsp. piscium. The settings on record: cofactors PLP and 5,10-methylenetetrahydrofolate (mTHF); potassium phosphate buffer pH 7.5 (stated for the glycine assay; same condition for serine).

For the molecule `N[C@H](CO)C(=O)O` [D-serine], the Km came to 603 ± 56.7 µM. For `N[C@@H](CO)C(=O)O` [L-serine], the Km was 69.52 ± 0.03 µM.

By Km is commonly meant the substrate concentration at which the rate is half of its maximum.
